Key:
[1] = target: Epidermal growth factor receptor (Homo sapiens, UniProt P00533); assay: (§1) Kinase Inhibition Assay: Table 9: Compounds 1 and 2, Section D., (see FIG. 4, bottom row, far right column) each inhibit VEGFR-2 and PDGFR-β for antiangiogenic effects and also inhibit human TS (hTS) for cytotoxic effects in single agents.12 The inhibitory potency of both these single agents against VEGFR-2, PDGFR-β, and hTS was better than or close to standards (Tables 9, 10).
[2] = target: Platelet-derived growth factor receptor beta (Homo sapiens, UniProt P09619); assay: as §1
Chain of Platelet-derived growth factor receptor beta (P09619 whole entry): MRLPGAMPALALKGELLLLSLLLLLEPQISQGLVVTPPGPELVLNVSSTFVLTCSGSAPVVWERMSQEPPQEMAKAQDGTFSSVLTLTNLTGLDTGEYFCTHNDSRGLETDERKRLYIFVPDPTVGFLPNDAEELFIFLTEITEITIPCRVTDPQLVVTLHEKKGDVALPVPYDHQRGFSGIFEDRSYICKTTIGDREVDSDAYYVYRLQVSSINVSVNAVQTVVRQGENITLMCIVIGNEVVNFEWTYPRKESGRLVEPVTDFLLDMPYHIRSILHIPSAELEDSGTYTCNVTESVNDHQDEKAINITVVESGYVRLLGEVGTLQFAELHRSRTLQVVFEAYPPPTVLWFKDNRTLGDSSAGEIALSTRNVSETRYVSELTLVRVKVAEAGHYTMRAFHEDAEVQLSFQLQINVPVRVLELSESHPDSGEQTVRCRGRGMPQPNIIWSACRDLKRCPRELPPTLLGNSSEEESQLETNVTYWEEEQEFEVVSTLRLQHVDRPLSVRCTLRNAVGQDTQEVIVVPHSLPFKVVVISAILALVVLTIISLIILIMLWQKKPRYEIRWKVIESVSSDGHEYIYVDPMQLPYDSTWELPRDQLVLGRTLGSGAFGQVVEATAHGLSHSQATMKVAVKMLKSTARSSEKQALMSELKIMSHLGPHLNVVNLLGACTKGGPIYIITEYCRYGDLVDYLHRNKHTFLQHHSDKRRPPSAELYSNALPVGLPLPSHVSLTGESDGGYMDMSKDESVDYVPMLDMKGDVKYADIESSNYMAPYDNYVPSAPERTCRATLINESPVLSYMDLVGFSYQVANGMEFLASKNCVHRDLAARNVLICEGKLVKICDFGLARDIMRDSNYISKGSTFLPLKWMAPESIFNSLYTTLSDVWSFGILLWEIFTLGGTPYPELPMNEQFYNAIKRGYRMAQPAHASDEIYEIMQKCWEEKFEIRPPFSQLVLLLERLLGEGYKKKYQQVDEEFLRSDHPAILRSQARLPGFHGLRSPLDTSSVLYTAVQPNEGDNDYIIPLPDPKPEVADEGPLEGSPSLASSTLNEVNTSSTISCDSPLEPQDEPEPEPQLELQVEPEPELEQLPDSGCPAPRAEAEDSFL

[3] = target: Vascular endothelial growth factor receptor 1 (Homo sapiens, UniProt P17948); assay: as §1
Chain of Vascular endothelial growth factor receptor 1 (P17948 whole entry): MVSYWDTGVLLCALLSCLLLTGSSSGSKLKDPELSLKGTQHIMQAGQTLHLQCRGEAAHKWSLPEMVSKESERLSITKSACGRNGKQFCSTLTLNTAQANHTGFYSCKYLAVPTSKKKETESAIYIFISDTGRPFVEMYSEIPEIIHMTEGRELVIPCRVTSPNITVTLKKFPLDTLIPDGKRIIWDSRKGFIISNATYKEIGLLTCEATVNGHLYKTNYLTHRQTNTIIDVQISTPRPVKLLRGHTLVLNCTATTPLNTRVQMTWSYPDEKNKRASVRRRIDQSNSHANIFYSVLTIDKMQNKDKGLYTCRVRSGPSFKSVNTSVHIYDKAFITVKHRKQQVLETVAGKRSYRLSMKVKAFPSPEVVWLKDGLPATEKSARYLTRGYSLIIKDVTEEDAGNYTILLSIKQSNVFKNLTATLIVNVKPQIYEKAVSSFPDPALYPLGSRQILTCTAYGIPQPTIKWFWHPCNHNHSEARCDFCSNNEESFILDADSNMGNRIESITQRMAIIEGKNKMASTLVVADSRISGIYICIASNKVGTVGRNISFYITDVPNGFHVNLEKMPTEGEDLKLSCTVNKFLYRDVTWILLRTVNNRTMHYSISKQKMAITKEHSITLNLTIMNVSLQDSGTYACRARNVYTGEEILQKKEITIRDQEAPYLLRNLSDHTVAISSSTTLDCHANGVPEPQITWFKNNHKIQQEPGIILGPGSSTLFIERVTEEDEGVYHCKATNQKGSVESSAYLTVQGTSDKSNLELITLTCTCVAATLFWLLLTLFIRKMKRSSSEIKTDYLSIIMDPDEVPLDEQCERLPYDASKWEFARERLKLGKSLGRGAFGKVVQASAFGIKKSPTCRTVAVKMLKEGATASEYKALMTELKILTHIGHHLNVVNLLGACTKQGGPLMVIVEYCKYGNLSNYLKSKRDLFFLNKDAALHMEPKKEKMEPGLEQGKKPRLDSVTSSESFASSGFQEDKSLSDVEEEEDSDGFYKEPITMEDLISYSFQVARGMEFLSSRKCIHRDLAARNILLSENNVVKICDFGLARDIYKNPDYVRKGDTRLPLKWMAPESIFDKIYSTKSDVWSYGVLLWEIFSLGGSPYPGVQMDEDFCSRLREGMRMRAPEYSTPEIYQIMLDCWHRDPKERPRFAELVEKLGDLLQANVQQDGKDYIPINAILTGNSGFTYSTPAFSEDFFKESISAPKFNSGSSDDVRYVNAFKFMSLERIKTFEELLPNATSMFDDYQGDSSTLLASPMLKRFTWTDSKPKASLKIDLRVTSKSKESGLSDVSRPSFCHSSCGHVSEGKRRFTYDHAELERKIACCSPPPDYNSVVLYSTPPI

[4] = target: Vascular endothelial growth factor receptor 2 (Homo sapiens, UniProt P35968); assay: as §1
Chain of Vascular endothelial growth factor receptor 2 (P35968 whole entry): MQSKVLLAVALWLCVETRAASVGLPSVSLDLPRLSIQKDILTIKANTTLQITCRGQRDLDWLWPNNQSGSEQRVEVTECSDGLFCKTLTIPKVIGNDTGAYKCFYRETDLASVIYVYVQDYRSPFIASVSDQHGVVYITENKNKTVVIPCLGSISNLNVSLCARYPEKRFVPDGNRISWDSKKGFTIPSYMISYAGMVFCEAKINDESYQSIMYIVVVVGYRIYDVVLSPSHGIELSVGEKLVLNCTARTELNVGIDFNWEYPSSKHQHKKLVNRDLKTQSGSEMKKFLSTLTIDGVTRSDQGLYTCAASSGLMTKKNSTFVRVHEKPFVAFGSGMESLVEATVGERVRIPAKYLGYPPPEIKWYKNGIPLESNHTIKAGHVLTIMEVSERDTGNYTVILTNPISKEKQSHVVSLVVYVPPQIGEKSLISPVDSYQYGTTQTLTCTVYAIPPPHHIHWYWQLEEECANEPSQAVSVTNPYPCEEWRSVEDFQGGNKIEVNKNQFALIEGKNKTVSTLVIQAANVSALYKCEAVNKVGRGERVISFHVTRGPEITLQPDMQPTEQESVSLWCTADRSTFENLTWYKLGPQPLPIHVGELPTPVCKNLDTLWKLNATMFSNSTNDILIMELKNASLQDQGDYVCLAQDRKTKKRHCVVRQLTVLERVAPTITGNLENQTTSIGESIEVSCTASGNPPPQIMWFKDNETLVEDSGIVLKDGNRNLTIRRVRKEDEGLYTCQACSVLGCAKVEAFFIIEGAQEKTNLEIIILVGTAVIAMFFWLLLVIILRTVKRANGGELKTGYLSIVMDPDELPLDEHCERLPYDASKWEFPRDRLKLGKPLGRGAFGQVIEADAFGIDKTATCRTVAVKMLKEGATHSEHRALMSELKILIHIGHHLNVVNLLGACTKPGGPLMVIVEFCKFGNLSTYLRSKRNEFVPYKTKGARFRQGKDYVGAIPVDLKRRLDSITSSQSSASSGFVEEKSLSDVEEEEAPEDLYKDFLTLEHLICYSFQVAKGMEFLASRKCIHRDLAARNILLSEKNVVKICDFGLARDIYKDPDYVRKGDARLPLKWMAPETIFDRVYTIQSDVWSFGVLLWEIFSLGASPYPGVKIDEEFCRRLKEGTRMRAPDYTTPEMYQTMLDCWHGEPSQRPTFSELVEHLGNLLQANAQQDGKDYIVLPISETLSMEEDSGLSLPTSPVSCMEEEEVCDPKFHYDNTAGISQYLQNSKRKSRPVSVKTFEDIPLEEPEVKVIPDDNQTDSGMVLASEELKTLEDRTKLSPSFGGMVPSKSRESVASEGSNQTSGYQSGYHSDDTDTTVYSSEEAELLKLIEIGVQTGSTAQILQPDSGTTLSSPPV

Chain of Epidermal growth factor receptor (P00533 whole entry): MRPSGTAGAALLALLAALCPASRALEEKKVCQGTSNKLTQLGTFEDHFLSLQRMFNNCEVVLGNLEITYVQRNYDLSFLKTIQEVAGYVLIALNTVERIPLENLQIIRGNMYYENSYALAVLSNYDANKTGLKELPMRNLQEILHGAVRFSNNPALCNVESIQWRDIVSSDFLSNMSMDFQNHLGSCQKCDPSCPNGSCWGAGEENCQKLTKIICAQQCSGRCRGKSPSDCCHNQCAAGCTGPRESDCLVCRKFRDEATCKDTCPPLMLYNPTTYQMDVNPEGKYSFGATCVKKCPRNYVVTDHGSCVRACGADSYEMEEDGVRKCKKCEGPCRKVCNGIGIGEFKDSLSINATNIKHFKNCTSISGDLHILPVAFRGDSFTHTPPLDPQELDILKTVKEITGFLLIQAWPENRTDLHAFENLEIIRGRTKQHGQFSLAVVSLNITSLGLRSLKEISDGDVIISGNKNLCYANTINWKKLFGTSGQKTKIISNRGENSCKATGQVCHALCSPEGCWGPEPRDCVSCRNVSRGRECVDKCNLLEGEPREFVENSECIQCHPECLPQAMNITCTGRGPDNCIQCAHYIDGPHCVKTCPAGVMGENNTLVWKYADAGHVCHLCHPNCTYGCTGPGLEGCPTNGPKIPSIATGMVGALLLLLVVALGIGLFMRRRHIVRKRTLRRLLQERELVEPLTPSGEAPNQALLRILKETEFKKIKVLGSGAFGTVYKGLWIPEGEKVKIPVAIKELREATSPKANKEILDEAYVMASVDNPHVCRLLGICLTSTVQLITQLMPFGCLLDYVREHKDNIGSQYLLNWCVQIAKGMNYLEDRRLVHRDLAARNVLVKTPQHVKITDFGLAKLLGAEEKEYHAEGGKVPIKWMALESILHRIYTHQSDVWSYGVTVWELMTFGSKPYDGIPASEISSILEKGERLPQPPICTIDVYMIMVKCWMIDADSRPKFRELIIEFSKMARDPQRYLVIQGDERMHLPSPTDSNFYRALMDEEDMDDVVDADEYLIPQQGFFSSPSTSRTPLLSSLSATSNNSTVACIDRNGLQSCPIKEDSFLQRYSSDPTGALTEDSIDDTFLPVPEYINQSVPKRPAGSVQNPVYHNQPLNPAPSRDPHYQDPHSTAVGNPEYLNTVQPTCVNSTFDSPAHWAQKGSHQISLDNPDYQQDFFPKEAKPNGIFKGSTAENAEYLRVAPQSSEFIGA

SMILES | IC50 [1] [µM] | IC50 [2] [µM] | IC50 [3] [µM] | IC50 [4] [µM]
COc1cccc(Sc2sc3nc(N)nc(N)c3c2C)c1 | 10.4 | 40.3 | 160 | 56.3
COc1ccc(Sc2sc3nc(N)nc(N)c3c2C)cc1OC |  | 2.8 | 118 | 22.6
